Measurements published in paper PMC4522657, “Identification of a DYRK1A Inhibitor that Induces Degradation of the Target Kinase using Co-chaperone CDC37 fused with Luciferase nanoKAZ” (Scientific Reports, 2015).

What was measured:
Assay in all cases: Kinase panel, CaNDY 1 µM
Type in all cases: biochemical
Details in all cases: CaNDY 1 µM relative to DMSO
ALK(R1275Q) = molecular target: T1, ALK(R1275Q) (Homo sapiens, UniProt Q9UM73, R1275Q)
T1 construct: purchased Carna Biosciences
From the text: (§1) Detailed information on the assay conditions is available on the website of Carna Biosciences (http://www.carnabio.com/english/index.html; Kobe, Japan). In brief, full-length human recombinant kinases were expressed using a baculovirus expression system as amino-terminal GST-fusion proteins, and purified by glutathione-Sepharose chromatography. The GenBank accession numbers of DYRK1A, DYRK1B, DYRK2, and DYRK3 were NP_001387.2, NP_004705.1, NP_003574.1, and NP_003573.2. Kinase activities were evaluated by Off-chip Mobility Shift Assay after reaction of 1 μM of the substrate DYRKtide-F with ATP (25 μM for DYRK1A, 50 μM for DYRK1B, 10 μM for DYRK2, and 5 μM for DYRK3). For each compound, a DMSO solution was diluted in assay buffer to yield a final concentration of 1% DMSO. After incubation for one hour at room temperature, substrate phosphorylation was analyzed by electrophoretic separation of the substrate and products using a Caliper LC3000 platform (Caliper Life Sciences, Mountain View, CA, USA). The phosphorylated product (P)/(P + substrate) ratio was calculated at each concentration of each small molecule and the percent inhibition was expressed relative to a control assay in the absence of the small molecule. […] The IC50 of each compound was calculated by interpolation on a log-concentration-response curve fitted with a four-parameter logistic equation.
(§2) All kinase assays were carried out at Carna Biosciences. The inhibitory map was made with Kinome Render[36].

AMPKα2/β1/γ1 = molecular target: T2, AMPKα2/β1/γ1 (Homo sapiens, UniProt P54646)
T2 construct: purchased Carna Biosciences
From the text: as §1, §2

BRAF(V600E)_Cascade = molecular target: T3, BRAF(V600E)_Cascade (Homo sapiens, UniProt P15056, V600E)
T3 construct: purchased Carna Biosciences
From the text: as §1, §2

CDK2/CycE1 = molecular target: T4, CDK2/CycE1 (Homo sapiens, UniProt P24941)
T4 construct: purchased Carna Biosciences
From the text: as §1, §2

CDK4/CycD3 = molecular target: T5, CDK4/CycD3 (Homo sapiens, UniProt P11802)
T5 construct: purchased Carna Biosciences
From the text: as §1, §2

CHK1 = molecular target: T6, CHK1 (Homo sapiens, UniProt O14757)
T6 construct: purchased Carna Biosciences
From the text: as §1, §2

COT_Cascade = molecular target: T7, COT_Cascade (Homo sapiens, UniProt P41279)
T7 construct: purchased Carna Biosciences
From the text: as §1, §2

DLK_Cascade = molecular target: T8, DLK_Cascade (Homo sapiens, UniProt Q12852)
T8 construct: purchased Carna Biosciences
From the text: as §1, §2

DYRK2 = molecular target: T9, DYRK2 (Homo sapiens, UniProt Q92630)
T9 construct: purchased Carna Biosciences
From the text: as §1, §2

EML4-ALK = molecular target: T10, EML4-ALK (Homo sapiens, UniProt Q9UM73)
T10 construct: purchased Carna Biosciences
From the text: as §1, §2

EPHA4 = molecular target: T11, EPHA4 (Homo sapiens, UniProt P54764)
T11 construct: purchased Carna Biosciences
T11 sequence (P54764 20-986): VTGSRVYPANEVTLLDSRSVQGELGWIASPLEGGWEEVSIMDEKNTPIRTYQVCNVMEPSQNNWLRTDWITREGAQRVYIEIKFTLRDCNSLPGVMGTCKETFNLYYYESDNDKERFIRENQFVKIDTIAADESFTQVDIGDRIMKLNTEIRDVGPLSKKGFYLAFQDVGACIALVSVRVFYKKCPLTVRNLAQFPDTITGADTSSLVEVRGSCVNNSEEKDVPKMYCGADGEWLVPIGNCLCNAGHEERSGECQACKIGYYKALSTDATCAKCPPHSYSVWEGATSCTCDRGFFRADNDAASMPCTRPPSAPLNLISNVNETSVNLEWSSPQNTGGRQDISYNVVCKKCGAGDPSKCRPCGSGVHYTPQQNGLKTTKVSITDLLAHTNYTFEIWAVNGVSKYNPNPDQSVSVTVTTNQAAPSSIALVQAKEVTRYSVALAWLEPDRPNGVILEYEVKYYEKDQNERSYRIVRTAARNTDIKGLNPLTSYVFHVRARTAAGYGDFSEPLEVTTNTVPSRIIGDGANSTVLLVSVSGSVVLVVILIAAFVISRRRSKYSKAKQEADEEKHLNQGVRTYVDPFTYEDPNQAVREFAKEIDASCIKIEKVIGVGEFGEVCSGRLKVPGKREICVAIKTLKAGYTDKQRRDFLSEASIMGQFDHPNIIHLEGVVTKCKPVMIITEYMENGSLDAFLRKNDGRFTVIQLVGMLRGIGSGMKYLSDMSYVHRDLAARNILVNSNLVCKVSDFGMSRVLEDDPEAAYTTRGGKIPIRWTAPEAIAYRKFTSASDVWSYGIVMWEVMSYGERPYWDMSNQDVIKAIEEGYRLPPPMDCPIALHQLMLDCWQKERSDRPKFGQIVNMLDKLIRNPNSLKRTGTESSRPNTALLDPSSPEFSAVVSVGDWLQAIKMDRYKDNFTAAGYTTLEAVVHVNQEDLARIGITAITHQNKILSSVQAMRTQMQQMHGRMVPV
From the text: as §1, §2

EPHA8 = molecular target: T12, EPHA8 (Homo sapiens, UniProt P29322)
T12 construct: purchased Carna Biosciences
T12 sequence (P29322 28-1005): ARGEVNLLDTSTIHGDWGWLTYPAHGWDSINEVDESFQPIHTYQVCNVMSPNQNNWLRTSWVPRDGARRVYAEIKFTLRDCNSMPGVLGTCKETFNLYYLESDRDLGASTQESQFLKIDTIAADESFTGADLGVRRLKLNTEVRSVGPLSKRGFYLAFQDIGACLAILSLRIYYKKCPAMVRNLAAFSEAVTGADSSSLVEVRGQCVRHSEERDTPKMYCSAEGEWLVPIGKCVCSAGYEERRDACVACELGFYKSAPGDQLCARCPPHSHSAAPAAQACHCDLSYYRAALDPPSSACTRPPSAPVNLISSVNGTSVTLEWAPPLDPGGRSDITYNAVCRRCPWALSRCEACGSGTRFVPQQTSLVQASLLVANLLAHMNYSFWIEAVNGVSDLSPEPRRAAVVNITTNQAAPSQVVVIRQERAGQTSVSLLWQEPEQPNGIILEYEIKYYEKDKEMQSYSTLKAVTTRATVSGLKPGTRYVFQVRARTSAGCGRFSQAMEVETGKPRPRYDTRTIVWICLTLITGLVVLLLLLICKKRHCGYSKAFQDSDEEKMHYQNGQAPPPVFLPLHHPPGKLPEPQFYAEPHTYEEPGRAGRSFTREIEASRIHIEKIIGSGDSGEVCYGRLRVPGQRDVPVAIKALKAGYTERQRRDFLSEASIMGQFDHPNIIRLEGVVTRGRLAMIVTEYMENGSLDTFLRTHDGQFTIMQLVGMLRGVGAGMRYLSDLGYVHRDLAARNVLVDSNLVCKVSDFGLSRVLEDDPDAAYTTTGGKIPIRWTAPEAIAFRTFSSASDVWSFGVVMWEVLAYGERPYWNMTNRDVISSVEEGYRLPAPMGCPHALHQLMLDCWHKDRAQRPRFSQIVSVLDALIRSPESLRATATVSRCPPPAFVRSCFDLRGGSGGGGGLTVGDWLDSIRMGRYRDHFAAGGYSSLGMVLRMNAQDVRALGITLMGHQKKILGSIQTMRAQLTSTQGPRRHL
From the text: as §1, §2

EPHB2 = molecular target: T13, EPHB2 (Homo sapiens, UniProt P29323)
T13 construct: purchased Carna Biosciences
From the text: as §1, §2

EPHB4 = molecular target: T14, EPHB4 (Homo sapiens, UniProt P54760)
T14 construct: purchased Carna Biosciences
From the text: as §1, §2

FLT3 = molecular target: T15, FLT3 (Homo sapiens, UniProt P36888)
T15 construct: purchased Carna Biosciences
From the text: as §1, §2

FMS = molecular target: T16, FMS (Homo sapiens, UniProt P07333)
T16 construct: purchased Carna Biosciences
From the text: as §1, §2

HER4 = molecular target: T17, HER4 (Homo sapiens, UniProt Q15303)
T17 construct: purchased Carna Biosciences
From the text: as §1, §2

IKKε = molecular target: T18, IKKε (Homo sapiens, UniProt Q14164)
T18 construct: purchased Carna Biosciences
T18 sequence (Q14164 whole entry): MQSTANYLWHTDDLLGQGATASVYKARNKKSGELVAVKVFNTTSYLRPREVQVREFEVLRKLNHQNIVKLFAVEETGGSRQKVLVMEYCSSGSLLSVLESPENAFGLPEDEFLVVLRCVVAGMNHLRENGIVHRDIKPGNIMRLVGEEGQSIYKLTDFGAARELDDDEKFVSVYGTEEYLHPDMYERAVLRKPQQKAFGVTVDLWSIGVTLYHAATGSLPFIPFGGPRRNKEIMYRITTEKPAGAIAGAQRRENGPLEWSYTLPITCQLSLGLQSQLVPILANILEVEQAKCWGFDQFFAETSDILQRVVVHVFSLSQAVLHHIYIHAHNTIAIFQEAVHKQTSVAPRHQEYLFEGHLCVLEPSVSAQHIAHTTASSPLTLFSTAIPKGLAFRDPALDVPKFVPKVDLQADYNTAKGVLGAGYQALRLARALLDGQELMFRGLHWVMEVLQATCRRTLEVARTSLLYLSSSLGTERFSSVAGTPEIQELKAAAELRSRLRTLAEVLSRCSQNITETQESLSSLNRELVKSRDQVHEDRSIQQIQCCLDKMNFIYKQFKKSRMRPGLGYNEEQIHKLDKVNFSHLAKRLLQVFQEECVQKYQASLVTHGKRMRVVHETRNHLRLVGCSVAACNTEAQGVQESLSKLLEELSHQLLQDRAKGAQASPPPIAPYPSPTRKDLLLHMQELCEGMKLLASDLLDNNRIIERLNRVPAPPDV
From the text: as §1, §2

LATS2 = molecular target: T19, LATS2 (Homo sapiens, UniProt Q9NRM7)
T19 construct: purchased Carna Biosciences
From the text: as §1, §2

MAP2K3_Cascade = molecular target: T20, MAP2K3_Cascade (Homo sapiens, UniProt P46734)
T20 construct: purchased Carna Biosciences
T20 sequence (P46734 whole entry): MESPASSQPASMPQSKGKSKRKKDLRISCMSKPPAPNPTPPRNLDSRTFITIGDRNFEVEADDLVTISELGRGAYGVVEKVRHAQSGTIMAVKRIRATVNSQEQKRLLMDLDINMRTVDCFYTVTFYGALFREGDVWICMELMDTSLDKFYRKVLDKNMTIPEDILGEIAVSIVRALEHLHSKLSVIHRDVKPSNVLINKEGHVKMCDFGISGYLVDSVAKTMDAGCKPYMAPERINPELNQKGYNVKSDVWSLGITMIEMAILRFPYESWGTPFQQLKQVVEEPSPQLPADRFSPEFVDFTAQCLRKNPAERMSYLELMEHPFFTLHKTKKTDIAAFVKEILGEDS
From the text: as §1, §2

MAPKAPK5 = molecular target: T21, MAPKAPK5 (Homo sapiens, UniProt Q8IW41)
T21 construct: purchased Carna Biosciences
T21 sequence (Q8IW41 whole entry): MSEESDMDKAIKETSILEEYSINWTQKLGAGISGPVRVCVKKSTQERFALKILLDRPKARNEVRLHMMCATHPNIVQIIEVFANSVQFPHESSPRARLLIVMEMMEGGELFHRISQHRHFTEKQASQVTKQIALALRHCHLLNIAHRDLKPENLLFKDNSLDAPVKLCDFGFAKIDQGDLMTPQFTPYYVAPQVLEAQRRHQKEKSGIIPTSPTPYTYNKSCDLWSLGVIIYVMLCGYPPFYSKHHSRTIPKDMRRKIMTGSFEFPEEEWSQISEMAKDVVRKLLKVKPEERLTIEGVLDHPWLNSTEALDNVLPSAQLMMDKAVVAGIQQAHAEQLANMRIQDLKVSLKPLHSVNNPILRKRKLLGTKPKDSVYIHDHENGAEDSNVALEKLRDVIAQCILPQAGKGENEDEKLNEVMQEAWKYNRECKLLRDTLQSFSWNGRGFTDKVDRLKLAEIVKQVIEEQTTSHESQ
From the text: as §1, §2

MARK1 = molecular target: T22, MARK1 (Homo sapiens, UniProt Q9P0L2)
T22 construct: purchased Carna Biosciences
From the text: as §1, §2

MARK2 = molecular target: T23, MARK2 (Homo sapiens, UniProt Q7KZI7)
T23 construct: purchased Carna Biosciences
From the text: as §1, §2

MER = molecular target: T24, MER (Homo sapiens, UniProt Q12866)
T24 construct: purchased Carna Biosciences
From the text: as §1, §2

MINK = molecular target: T25, MINK (Homo sapiens, UniProt Q8N4C8)
T25 construct: purchased Carna Biosciences
From the text: as §1, §2

MRCKβ = molecular target: T26, MRCKβ (Homo sapiens, UniProt Q9Y5S2)
T26 construct: purchased Carna Biosciences
From the text: as §1, §2

MSK2 = molecular target: T27, MSK2 (Homo sapiens, UniProt O75676)
T27 construct: purchased Carna Biosciences
From the text: as §1, §2

PDGFRα = molecular target: T28, PDGFRα (Homo sapiens, UniProt P16234)
T28 construct: purchased Carna Biosciences
From the text: as §1, §2

PDGFRβ = molecular target: T29, PDGFRβ (Homo sapiens, UniProt P09619)
T29 construct: purchased Carna Biosciences
From the text: as §1, §2

PEK = molecular target: T30, PEK (Homo sapiens, UniProt Q9NZJ5)
T30 construct: purchased Carna Biosciences
From the text: as §1, §2

PKCθ = molecular target: T31, PKCθ (Homo sapiens, UniProt Q04759)
T31 construct: purchased Carna Biosciences
From the text: as §1, §2

PKN1 = molecular target: T32, PKN1 (Homo sapiens, UniProt Q16512)
T32 construct: purchased Carna Biosciences
From the text: as §1, §2

RET(Y791F) = molecular target: T33, RET(Y791F) (Homo sapiens, UniProt P07949, Y791F)
T33 construct: purchased Carna Biosciences
From the text: as §1, §2

SRC = molecular target: T34, SRC (Homo sapiens, UniProt P12931)
T34 construct: purchased Carna Biosciences
From the text: as §1, §2

TEC = molecular target: T35, TEC (Homo sapiens, UniProt P42680)
T35 construct: purchased Carna Biosciences
From the text: as §1, §2

skMLCK = molecular target: T36, skMLCK (Homo sapiens, UniProt Q9H1R3)
T36 construct: purchased Carna Biosciences
From the text: as §1, §2

T1 sequence (Q9UM73 19-1620 R1275Q): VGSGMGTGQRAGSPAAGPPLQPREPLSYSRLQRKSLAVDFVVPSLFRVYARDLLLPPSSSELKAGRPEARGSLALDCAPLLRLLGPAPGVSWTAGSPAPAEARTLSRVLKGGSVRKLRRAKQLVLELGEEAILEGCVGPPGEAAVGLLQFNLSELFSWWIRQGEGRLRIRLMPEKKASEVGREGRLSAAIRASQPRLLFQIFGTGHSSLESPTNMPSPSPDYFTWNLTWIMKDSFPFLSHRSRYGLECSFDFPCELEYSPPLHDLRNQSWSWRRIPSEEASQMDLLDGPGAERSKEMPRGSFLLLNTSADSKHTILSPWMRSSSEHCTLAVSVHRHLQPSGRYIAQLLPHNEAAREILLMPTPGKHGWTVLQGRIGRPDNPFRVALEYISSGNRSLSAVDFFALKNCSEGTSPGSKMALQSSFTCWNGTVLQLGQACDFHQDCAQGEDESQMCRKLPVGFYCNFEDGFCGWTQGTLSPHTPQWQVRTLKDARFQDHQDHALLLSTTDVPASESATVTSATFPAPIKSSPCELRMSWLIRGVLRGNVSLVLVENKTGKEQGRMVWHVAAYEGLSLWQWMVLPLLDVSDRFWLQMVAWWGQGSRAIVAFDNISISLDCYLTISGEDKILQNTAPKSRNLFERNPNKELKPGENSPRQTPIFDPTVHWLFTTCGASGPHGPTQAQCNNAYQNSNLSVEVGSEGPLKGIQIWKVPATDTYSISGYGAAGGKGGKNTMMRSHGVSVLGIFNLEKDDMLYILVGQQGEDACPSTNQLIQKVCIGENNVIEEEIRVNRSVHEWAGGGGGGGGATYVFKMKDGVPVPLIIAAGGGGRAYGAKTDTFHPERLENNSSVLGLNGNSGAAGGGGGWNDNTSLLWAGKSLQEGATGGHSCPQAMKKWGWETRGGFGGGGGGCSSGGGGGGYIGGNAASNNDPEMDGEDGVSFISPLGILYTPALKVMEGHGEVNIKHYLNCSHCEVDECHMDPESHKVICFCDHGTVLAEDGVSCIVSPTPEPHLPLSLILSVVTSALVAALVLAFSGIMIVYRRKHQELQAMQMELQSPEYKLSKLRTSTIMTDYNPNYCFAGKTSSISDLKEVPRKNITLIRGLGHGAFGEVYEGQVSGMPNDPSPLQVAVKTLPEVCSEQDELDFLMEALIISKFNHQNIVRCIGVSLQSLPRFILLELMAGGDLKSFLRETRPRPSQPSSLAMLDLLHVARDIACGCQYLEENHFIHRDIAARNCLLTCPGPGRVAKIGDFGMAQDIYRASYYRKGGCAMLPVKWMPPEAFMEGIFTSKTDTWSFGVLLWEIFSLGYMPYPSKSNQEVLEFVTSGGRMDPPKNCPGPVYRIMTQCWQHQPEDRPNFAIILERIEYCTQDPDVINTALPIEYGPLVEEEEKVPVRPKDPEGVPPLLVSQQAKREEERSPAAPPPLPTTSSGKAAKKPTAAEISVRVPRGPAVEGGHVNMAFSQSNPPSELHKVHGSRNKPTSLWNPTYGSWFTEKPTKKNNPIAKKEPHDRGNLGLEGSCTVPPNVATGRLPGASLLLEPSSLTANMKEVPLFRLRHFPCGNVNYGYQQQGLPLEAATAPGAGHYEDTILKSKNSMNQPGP

## [H]/N=C1/NC(=O)C(=Cc2ccc3c(c2)CCO3)S1 [CaNDY, (Z)-5-[(2,3-dihydrobenzofuran-5-yl)methylene]-2-iminothiazolidin-4-one]
ALK(R1275Q)
  remaining activity at 1 µM: 98.5%
AMPKα2/β1/γ1
  remaining activity at 1 µM: 97.5%
BRAF(V600E)_Cascade
  remaining activity at 1 µM: 105%
CDK2/CycE1
  %Activity: 87.5%
CDK4/CycD3
  remaining activity at 1 µM: 86.4%
CHK1
  %Activity: 93.5%
COT_Cascade
  remaining activity at 1 µM: 72.9%
DLK_Cascade
  %Activity: 102.6%
DYRK2
  remaining activity at 1 µM: 20.3%
EML4-ALK
  remaining activity at 1 µM: 99.2%
EPHA4
  remaining activity at 1 µM: 102%
EPHA8
  remaining activity at 1 µM: 101%
EPHB2
  %Activity: 99.8%
EPHB4
  remaining activity at 1 µM: 96.6%
FLT3
  remaining activity at 1 µM: 101%
FMS
  remaining activity at 1 µM: 101%
HER4
  remaining activity at 1 µM: 111%
IKKε
  remaining activity at 1 µM: 97.6%
LATS2
  %Activity: 98.1%
MAP2K3_Cascade
  remaining activity at 1 µM: 101%
MAPKAPK5
  remaining activity at 1 µM: 95.5%
MARK1
  remaining activity at 1 µM: 94.4%
MARK2
  remaining activity at 1 µM: 97.5%
MER
  remaining activity at 1 µM: 102%
MINK
  remaining activity at 1 µM: 83.7%
MRCKβ
  remaining activity at 1 µM: 82.5%
MSK2
  remaining activity at 1 µM: 98.3%
PDGFRα
  remaining activity at 1 µM: 84.1%
PDGFRβ
  remaining activity at 1 µM: 91.7%
PEK
  remaining activity at 1 µM: 90.4%
PKCθ
  remaining activity at 1 µM: 74.9%
PKN1
  remaining activity at 1 µM: 74.6%
RET(Y791F)
  remaining activity at 1 µM: 100%
SRC
  remaining activity at 1 µM: 102%
TEC
  remaining activity at 1 µM: 103%
skMLCK
  remaining activity at 1 µM: 96.2%
